Assay results as given in PMC11055700 (Chemicke Zvesti, 2024).
Where two headings read alike, the source gives them in different places.

Key:
[1] = target: T1, SARS-CoV-2 Spike-RBD (lambda) / ACE2 (Homo sapiens, UniProt Q9BYF1); assay: biochemical; format: binding
T1 construct: a SARS-CoV-2 RBD protein containing a C-terminal His tag; a full-length ACE2 peptide with a C-terminal Fc tag; purchased Sino Biological

[2] = target: T2, SARS-CoV-2 Spike-RBD (ancestral, WT) / ACE2 (Homo sapiens, UniProt Q9BYF1); assay: biochemical; format: binding
T2 construct: a SARS-CoV-2 RBD protein containing a C-terminal His tag; a full-length ACE2 peptide with a C-terminal Fc tag; purchased Sino Biological
T2 sequence (Q9BYF1 18-740): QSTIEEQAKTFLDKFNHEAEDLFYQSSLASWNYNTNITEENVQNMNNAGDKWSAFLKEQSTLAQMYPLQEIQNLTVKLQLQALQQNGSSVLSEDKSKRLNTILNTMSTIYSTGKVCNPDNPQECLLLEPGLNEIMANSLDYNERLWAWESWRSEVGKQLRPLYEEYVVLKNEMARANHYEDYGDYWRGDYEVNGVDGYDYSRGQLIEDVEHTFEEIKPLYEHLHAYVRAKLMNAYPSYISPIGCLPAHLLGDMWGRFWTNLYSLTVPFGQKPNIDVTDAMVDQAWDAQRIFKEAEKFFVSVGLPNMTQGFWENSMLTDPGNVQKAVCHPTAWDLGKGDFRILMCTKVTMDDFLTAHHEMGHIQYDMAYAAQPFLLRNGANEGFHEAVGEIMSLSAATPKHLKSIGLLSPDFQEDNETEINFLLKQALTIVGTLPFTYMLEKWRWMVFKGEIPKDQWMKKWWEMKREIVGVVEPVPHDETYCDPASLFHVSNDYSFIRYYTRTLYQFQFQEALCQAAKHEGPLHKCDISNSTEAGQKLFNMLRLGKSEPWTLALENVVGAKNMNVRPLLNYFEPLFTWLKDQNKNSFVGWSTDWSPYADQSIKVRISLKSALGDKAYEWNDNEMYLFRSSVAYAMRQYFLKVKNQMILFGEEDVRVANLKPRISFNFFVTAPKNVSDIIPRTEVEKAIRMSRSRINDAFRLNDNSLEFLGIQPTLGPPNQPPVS

T1 sequence (Q9BYF1 18-740): as above

## O=C1Nc2ccc(Cl)cc2C1=NNc1ccc([N+](=O)[O-])cc1[N+](=O)[O-] [H2L, 5-chloro-3-(2-(2,4-dinitrophenyl)hydrazono)indolin-2-one]
[1]
  fold difference in IC50 for any variant versus WT RBD: ≤ 1.4 fold
[2]; IC50 spike RBD/ACE2 binding, WT RBD sequence
  IC50: 448 nM

## REGN10933
[2]; read-out: IC50 spike RBD/ACE2 binding, WT RBD sequence
  IC50: 1.3 nM
